The results in this text go back to US6515103B1 (priority 1996, dated 2003).

For series [1], the system named is Frings audiogenic seizure-susceptible mice. The settings on record: mouse, in vivo.
Series [2] has the same test system. The settings on record: mouse, in vivo. This is another data set of the same source.
The test system of the next series is CF No. 1 mice. The note with it: mouse, in vivo; for anticonvulsant activity in CF No. 1 mice: sc.
Series [3] relates to young (<2 weeks old) mice. The settings on record: mouse, in vivo.
Series [4] relates to young (<2 weeks old) mice. The settings on record: mouse, in vivo. This is another data set of the same source.
Series [5] deals with young (<2 weeks old) mice. The note with it: mouse, in vivo. This is another data set of the same source.
Series [6] concerns the target NMDA receptor.
The target in series [7] is NMDA receptor. The series is described as follows: spermine-stimulated [3H]MK-801 binding assay, inhibition.
Series [8] deals with NR1-1b/NR2B NMDA receptor subtype.
In series [9] the target is kainate receptors (GluR6) (Homo sapiens, UniProt Q13002). Type of series: cell-based.
For the next series, the target named is T1, NR1-1b/NR2D combination (Homo sapiens, UniProt O15399+Q05586).
T1 construct: expressed in transfected cells; host or cells: oocytes
The format is cell-based.

A further series addresses T2, NR1 A subtype (Homo sapiens, UniProt Q05586).
T2 construct: expressed in transfected cells; host or cells: oocytes
Type of series: cell-based.

For the next series, the target named is AMPA receptor GluR1 (Homo sapiens, UniProt P42261). Type of series: cell-based.
Series [10] relates to NR1-1b/NR2B NMDA subtype. The series can be described thus: cell-based.
Series [11] concerns the target T3, NR1-1b/NR2B NMDA subtype (Homo sapiens, UniProt Q05586+Q13224).
T3 construct: expressed in transfected cells; host or cells: oocytes
The series is described as follows: cell-based.

In the next series the test system is CF #1 Mice. The settings on record: mouse, in vivo.
The next series deals with T4, NR1.1 B subtype (Homo sapiens, UniProt Q05586).
T4 construct: expressed in transfected cells; host or cells: oocytes
Type of series: cell-based.

pIC50, pKi: −log10 of the molar value. Values joined by “and” are separate entries in the source; they are usually repeats but may differ in a detail not shown here. Equal values may be shown once. Read-outs that look alike come from different tables or passages of the source. Marks after values point to notes of the source that are not given here. Where a SMILES comes first, the peptide text is derived from it. [ ]: non-standard residue; d: D form. Gla = N[C@@H](CC(C(=O)O)C(=O)O)C(=O)O

What is called pIC50 is −log10 of the IC50, conventionally taken in molar units. A low value points to a large IC50. As a reminder, the pKi is −log10 of the Ki, conventionally taken in molar units. Read a low pKi as a high Ki.

T3 sequence (Q13224 27-1484, other chains not shown): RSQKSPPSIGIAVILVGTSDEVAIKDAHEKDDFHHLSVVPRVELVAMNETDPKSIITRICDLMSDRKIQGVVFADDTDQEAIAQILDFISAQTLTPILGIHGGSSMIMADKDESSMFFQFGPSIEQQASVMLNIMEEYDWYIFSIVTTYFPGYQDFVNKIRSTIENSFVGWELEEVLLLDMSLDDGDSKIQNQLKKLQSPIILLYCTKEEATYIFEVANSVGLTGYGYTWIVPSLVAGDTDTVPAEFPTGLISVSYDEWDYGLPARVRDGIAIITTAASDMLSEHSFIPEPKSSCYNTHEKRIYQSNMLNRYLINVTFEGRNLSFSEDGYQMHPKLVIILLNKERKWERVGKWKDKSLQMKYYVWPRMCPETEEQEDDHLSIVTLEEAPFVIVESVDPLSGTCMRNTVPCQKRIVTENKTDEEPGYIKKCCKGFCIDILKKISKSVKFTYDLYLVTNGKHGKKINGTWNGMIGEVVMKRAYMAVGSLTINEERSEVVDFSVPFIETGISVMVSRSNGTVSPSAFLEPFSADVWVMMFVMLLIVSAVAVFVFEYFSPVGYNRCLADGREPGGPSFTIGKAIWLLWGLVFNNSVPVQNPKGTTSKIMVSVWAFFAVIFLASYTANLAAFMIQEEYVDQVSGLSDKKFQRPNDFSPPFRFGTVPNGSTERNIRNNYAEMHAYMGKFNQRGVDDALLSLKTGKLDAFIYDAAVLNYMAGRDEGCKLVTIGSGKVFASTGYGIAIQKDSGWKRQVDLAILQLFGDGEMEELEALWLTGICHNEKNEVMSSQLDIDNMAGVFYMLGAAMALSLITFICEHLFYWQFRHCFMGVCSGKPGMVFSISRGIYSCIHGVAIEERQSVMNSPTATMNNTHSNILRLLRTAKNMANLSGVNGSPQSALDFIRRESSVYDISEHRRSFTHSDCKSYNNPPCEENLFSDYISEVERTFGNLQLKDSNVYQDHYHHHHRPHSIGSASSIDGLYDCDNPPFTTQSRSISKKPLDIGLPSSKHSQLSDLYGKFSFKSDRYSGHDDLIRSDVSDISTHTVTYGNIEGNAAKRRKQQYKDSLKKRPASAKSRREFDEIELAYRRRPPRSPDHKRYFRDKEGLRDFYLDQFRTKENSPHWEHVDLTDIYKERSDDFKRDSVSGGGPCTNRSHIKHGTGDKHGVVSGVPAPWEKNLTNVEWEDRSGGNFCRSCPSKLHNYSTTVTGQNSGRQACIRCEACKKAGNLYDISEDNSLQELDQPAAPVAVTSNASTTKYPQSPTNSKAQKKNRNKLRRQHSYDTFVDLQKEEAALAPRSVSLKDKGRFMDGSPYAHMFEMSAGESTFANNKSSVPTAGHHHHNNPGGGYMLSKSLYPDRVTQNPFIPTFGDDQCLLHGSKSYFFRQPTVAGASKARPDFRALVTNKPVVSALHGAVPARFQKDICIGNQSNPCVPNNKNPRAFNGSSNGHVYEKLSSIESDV
kainate receptors (GluR6), sequence (Q13002 32-908, species assumed): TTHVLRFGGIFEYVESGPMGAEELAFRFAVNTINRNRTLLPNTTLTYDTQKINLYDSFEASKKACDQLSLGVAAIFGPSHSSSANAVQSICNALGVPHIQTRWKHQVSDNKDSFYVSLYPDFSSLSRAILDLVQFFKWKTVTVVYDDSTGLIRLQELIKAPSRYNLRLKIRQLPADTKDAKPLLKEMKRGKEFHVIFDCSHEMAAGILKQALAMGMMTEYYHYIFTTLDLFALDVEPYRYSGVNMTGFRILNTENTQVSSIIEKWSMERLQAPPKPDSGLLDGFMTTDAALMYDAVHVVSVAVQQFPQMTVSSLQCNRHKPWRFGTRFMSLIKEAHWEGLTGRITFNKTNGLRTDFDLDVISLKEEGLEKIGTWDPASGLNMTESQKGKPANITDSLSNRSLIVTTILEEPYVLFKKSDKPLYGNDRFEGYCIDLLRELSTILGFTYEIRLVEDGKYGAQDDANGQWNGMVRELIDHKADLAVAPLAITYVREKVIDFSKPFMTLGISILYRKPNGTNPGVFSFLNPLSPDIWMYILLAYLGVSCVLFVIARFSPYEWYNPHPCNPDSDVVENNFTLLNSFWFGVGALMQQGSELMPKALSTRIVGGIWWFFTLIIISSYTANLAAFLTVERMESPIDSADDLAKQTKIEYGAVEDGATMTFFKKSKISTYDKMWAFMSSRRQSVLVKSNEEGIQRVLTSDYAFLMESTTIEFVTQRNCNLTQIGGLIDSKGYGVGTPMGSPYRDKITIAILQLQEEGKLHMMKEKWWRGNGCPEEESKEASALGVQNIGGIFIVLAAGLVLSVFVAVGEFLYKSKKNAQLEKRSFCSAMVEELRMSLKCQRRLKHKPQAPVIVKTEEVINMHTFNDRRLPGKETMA
T1 sequence (O15399 28-1336, other chains not shown): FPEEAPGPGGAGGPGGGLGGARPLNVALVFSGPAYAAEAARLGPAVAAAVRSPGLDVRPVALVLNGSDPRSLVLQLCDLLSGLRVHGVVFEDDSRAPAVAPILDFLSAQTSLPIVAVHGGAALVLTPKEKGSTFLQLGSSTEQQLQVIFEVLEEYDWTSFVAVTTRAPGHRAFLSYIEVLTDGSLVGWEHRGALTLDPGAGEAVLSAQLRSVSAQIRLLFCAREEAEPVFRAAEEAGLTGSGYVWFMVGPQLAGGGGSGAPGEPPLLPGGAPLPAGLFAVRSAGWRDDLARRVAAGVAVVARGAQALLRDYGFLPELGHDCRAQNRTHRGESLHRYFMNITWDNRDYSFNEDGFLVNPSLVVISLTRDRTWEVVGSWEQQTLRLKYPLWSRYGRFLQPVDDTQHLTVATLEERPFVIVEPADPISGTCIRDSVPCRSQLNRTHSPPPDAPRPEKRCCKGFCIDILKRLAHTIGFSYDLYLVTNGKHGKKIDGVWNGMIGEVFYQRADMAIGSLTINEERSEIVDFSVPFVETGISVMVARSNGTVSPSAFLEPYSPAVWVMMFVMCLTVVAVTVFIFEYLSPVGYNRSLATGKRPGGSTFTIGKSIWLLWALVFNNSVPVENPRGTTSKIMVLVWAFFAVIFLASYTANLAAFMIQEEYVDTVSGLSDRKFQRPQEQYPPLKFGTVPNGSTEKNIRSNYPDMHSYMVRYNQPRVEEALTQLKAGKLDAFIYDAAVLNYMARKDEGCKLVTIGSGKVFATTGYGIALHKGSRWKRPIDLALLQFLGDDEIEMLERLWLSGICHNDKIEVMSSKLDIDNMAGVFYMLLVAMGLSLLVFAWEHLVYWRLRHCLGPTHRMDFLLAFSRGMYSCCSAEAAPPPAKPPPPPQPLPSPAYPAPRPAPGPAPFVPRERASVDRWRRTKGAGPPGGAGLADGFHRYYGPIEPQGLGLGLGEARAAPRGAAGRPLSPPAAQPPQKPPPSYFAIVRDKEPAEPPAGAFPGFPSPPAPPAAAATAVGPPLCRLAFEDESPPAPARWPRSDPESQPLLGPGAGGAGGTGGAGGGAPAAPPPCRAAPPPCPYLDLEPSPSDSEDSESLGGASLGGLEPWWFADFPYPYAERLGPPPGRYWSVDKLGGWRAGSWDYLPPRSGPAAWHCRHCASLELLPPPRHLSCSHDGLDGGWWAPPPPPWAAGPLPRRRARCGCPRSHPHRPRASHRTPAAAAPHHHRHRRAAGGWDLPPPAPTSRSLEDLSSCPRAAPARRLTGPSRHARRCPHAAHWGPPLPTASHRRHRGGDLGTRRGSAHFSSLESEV
AMPA receptor GluR1, sequence (P42261 19-906): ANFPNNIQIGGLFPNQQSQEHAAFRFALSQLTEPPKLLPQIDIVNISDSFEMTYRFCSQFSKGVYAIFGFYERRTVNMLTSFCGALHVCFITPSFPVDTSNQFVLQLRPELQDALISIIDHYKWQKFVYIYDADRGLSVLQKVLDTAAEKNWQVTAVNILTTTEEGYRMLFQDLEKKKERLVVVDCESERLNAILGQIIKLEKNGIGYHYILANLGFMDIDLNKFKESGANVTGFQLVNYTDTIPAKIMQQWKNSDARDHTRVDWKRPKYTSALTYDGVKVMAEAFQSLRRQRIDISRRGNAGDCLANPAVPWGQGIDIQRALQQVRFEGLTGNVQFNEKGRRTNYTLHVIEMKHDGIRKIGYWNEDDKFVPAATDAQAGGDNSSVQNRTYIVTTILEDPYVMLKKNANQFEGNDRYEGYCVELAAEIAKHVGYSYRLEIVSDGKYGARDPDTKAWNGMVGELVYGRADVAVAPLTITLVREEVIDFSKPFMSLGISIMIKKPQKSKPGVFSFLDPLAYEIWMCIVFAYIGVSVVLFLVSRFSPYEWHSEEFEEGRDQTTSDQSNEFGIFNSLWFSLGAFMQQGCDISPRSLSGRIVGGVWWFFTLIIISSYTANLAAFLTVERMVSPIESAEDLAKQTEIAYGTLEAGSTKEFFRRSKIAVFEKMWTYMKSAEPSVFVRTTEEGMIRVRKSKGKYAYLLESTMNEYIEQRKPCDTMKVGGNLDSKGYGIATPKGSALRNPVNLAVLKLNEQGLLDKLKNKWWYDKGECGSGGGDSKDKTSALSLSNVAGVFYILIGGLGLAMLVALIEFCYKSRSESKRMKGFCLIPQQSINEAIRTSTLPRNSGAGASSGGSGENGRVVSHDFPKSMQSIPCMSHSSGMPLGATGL

In the case of `CSCC[C@H](NC(=O)[C@H](CCCCN)NC(=O)[C@H](CCC(N)=O)NC(=O)[C@H](Cc1ccc(O)cc1)NC(=O)[C@H](CC(C(=O)O)C(=O)O)NC(=O)[C@H](CC(C(=O)O)C(=O)O)NC(=O)[C@H](CCC(=O)O)NC(=O)CN)C(=O)N[C@@H](CC(C)C)C(=O)N[C@@H](CC(C(=O)O)C(=O)O)C(=O)N[C@@H](CC(N)=O)C(=O)N[C@@H](CC(C)C)C(=O)N[C@@H](CCCNC(=N)N)C(=O)N[C@@H](CC(C(=O)O)C(=O)O)C(=O)N[C@@H](C)C(=O)N[C@@H](CCC(=O)O)C(=O)N[C@H](C(=O)N[C@@H](CCCCN)C(=O)N[C@@H](CCCCN)C(=O)N[C@@H](CC(N)=O)C(=O)N[C@@H](C)C(N)=O)C(C)C` [Con T, Conantokin T] (H-GE[Gla][Gla]YQKML[Gla]NLR[Gla]AEVKKNA-NH2), the P.I. in series [1] is recorded as 13. Moreover, the TD50 in series [2] is 0.228 nmols. Moreover, the “behavioral toxicity, rotorod test” value in series [2] (iv, 12 mg/kg) is listed as “No animals exhibited behavioral toxicity”.

On to Conantokin Gm [Con Gm], for which, in the series on CF No. 1 mice, the “anticonvulsant activity in CF No. 1 mice” value is reported as “anticonvulsant activity”.

On to Conantokin S1 [Con S1], for which the “anticonvulsant activity in CF No. 1 mice” value in the series on CF No. 1 mice is listed as “anticonvulsant activity”.

Take Conantokin Qu [Con Qu]: in the series on CF No. 1 mice, the “anticonvulsant activity in CF No. 1 mice” value is reported as “anticonvulsant activity”.

Regarding Conatokin L [Con L], the “Catalepsy Test, positive/tested” value in series [3] is 4/4 and 3/4. In the series with CF No. 1 mice, the “anticonvulsant activity in CF No. 1 mice” value is recorded as “anticonvulsant activity”. In addition, in [4], the “Righting Reflex, positive/tested” value is 2/4 and 3/4. Also, the “Sleepy Test, positive/tested” value in series [5] is given as 4/4.

As to Conantokin G (peptide), the pIC50 with NMDA receptor [6] and with NMDA receptor [7] was 6.71 throughout.

Regarding Conantokin Oc [Con Oc], the “Catalepsy Test, positive/tested” value in series [3] is on record as 0/3. The “Righting Reflex, positive/tested” value in series [4] was 0/3. Further, the “Sleepy Test, positive/tested” value in series [5] is 2/3 and 0/3.

Take A^7 Con G (peptide): the pIC50 in the series with NMDA receptor [7] is 7.35.

The molecule Conantokin R (peptide) had a pKi in series [8] of 6.85.

For the molecule `CC[C@H](C)[C@H](NC(=O)[C@H](CC(N)=O)NC(=O)[C@H](CC(C(=O)O)C(=O)O)NC(=O)[C@H](CCCNC(=N)N)NC(=O)[C@H](C)NC(=O)[C@H](CC(C)C)NC(=O)[C@H](CC(C(=O)O)C(=O)O)NC(=O)[C@H](C)NC(=O)[C@H](C)NC(=O)[C@H](CCSC)NC(=O)[C@H](CCCCN)NC(=O)[C@H](C)NC(=O)[C@@H](NC(=O)[C@H](CC(C(=O)O)C(=O)O)NC(=O)[C@H](CC(C(=O)O)C(=O)O)NC(=O)[C@H](CCC(=O)O)NC(=O)CN)C(C)C)C(=O)N[C@@H](C)C(=O)N[C@@H](CCCCN)C(=O)NCC(=O)N[C@H]1CSSC[C@@H](C(=O)N[C@@H](Cc2ccc(O)cc2)C(=O)N2CCC[C@H]2C(=O)O)NC(=O)[C@H](CC(N)=O)NC(=O)[C@H](C(C)C)NC(=O)[C@H](CCCCN)NC1=O` [Con R, Conantokin R], the “Catalepsy Test, positive/tested” value in [3] is listed as 2/3. Also, in [1], the “# Protected/# Tested” value is 4/4; the ED50 is 0.013^c nmols and 0.013 nmols; the “ED50 (pmol, i.c.v.)” value was 9 pmol and 9.00 pmol; the P.I. is reported as 17. In addition, in series [1], the “Protective Index, PI (TD50/ED50)” value is recorded as 18; the “antiseizure activity relative to valproic acid” value is given as “greater than 400,000 fold”; the “protective index relative to valproic acid” value was “at least eight times better”. The “inhibition of kainate receptors (GluR6)” value in series [9] is “not to inhibit”. In addition, the “TD50” value in [2] was found to be 164 pmol. In addition, on NR1-1b/NR2D combination, the “effect on NR1-1b/NR2D combination” value was “not affected”. Moreover, the “inhibition of homomeric NR1 complex, A subtype” value at NR1 A subtype is reported as “no effect”. In addition, in the series with CF No. 1 mice, the “MES ED50” value is 0.083 nmols, the P.I. stood at 3.6 and the “anticonvulsant activity in CF No. 1 mice” value is “anticonvulsant activity”. Besides, the “inhibition of AMPA receptor GluR1” value at AMPA receptor GluR1 is “not to inhibit”. Moreover, in the series with NR1-1b/NR2B NMDA subtype [10], the “affinity for NR1-1b/NR2B relative to NR1-1b/NR2D” value is listed as “greater than 50 fold” and the “selectivity for the B splice variant of NR1 in heteromeric complexes” value is reported as “selective for the B splice variant”. Also, the “inhibition of heteromeric NR1:NR2B complexes with B splice variant of NR1” value against NR1-1b/NR2B NMDA subtype [11] was “inhibited”. The inhibition at 3 µM on NR1-1b/NR2B NMDA subtype [11] (read-out: inhibition of the current produced by the NR1-1b/NR2B NMDA subtype in response to glutamate and glycine) was approximately 95%. In addition, the TD50 entry in the series on CF #1 Mice is given as “˜0.300 nmols”. Moreover, the “inhibition of homomeric NR1 complex, NR1.1 B subtype” value on NR1.1 B subtype is recorded as “only inhibited the NR1.1 B subtype”. The “Righting Reflex, positive/tested” value in series [4] is recorded as 2/3. In addition, the “Sleepy Test, positive/tested” value in series [5] was 2/3.
